# Reference: publication PMC6199744, “Development of Chemical Proteomics for the Folateome and Analysis of the Kinetoplastid Folateome” (ACS Infectious Diseases, 2018)
# “And” between values parts separate entries of the source, which are not always exact repeats. Equal values may be shown once. Read-outs that look alike come from different tables or passages of the source.
# Tested on: L. major lysate proteins
# Assay: Multitargeted bead mixture chemoproteomics, single concentration competition, proteome-wide
# Assay type: binding
# Conditions: for fold change / fold change relative to vehicle control: vehicle control = 1; for fold change relative to vehicle control: competition with free ligand
compound,measurement,setting,value
CCCCCCOc1cccc(Cc2cnc(N)nc2N)c1 [compound 2],fold change vs vehicle control,,1.17 and 1.18 and 1.07 and 1.04
same,fold change,LINJ.05.0500 ATPASE ALPHA SUBUNIT,1.11
same,fold change,LINJ.36.4570 PROTEASOME REGULATORY ATPASE SUBUNIT,0.65
same,fold change,"LMJF.10.0510 GLYCEROL-3-PHOSPHATE DEH[…] ], GLYCOSOMAL",1.02
same,fold change,LMJF.16.1610 PROHIBITIN,1.14
same,fold change,"LMJF.18.1370 HEAT SHOCK PROTEIN, PUTATIVE",1.03
same,fold change,"LMJF.19.0300 RNA BINDING PROTEIN, PUTATIVE",0.93
same,fold change,"LMJF.21.0760 […]-ATP-ASE SUBUNIT 5, PUTATIVE",0.91
same,fold change,"LMJF.22.0410 HY[…], CONSERVED",0.85
same,fold change,"LMJF.25.1770 ENOYL-COA REDUCTASE, PUTATIVE",1.1
same,fold change,LMJF.26.0300 AMINOPEPTIDASE-LIKE PROTEIN,0.85
same,fold change,"LMJF.26.2560 HY[…], CONSERVED",1.08
same,fold change,"LMJF.27.1810 GLYCOSOMAL PHOSPHOENOLPYRUVATE CARBOXYKINASE, PUTATIVE",1.17
same,fold change,"LMJF.28.0490 PROPIONYL-COA CARBOXYLASE BETA CHAIN, PUTATIVE",0.63
same,fold change,"LMJF.29.0940 HY[…], CONSERVED",1.21
same,fold change,"LMJF.29.1310 CARNITINE/CHOLINE ACETYLTRANSFERASE, PUTATIVE",1.04
same,fold change,"LMJF.29.1470 HY[…], CONSERVED",1.11
same,fold change,"LMJF.29.2440 HYPOTHETICAL PROTEIN, CONSERVED",1
same,fold change,LMJF.30.2350 SPHINGOSINE 1-PHOSPHATE LYASE,1.12
same,fold change,"LMJF.30.2970 GLYCERALDEHYDE 3-PHOSPHATE DEHYDROGENASE, GLYCOSOMAL",1.11
same,fold change,"LMJF.30.3390 CAS/CSE/IMPORTIN DOMAIN PROTEIN, PUTATIVE",0.9
same,fold change,LMJF.31.2650 ACETOIN DEHYDROGENASE E3 COMPONENT-LIKE PROTEIN,1.02
same,fold change,"LMJF.31.2970 ACETYL-COA CARBOXYLASE, PUTATIVE",0.91
same,fold change,"LMJF.33.1030 HYPOTHETICAL PROTEIN, CONSERVED",0.95
same,fold change,LMJF.35.5040 polyadenylate-binding protein 1,1.22
same,fold change,"LMJF.35.5250 ALPHA-1,2-MANNOSYLTRANSFERASE, PUTATIVE",0.99
same,fold change,"LMJF.36.5100 HY[…], CONSERVED",1.03
same,fold change,"LMJF.[…] RIBOSOMAL PROTEIN S7, PUTATIVE",1.35
same,fold change vs vehicle control,"protein LINJ.03.0940 HY[…], CONSERVED",1.19
same,fold change vs vehicle control,"protein LINJ.09.0030 HYPOTHETICAL PROTEIN, CONSERVED",0.91
same,fold change relative to vehicle control,"protein LINJ.11.0780 40S RIBOSOMAL PROTEIN S21, PUTATIVE",1.25
same,fold change,"protein LINJ.13.0990 […] SUBUNIT 2, PUTATIVE",1.04
same,fold change vs vehicle control,protein LINJ.13.1460 ALPHA TUBULIN,1.06
same,fold change,"protein LINJ.15.0090 HEAT SHOCK PROTEIN HSLVU, ATPASE SUBUNIT HSLU, PUTATIVE",1.01
same,fold change relative to vehicle control,"protein LINJ.16.1380 CYTOCHROME C, PUTATIVE",1.41
same,fold change vs vehicle control,protein LINJ.19.0300 RNA BINDING PROTEIN,1.2
same,fold change,"protein LINJ.20.0630 CYTIDINE TR[…], PUTATIVE",1.24
same,fold change relative to vehicle control,"protein LINJ.20.1390 COATOMER BETA SUBUNIT, PUTATIVE",1.31
same,fold change vs vehicle control,"protein LINJ.21.1310 40S RIBOSOMAL PROTEIN S23, PUTATIVE",1.12
same,fold change vs vehicle control,"protein LINJ.23.1680 HY[…], CONSERVED",1.11
same,fold change vs vehicle control,"protein LINJ.25.1170 […] OXIDASE VII, PUTATIVE",1.03
same,fold change relative to vehicle control,protein LINJ.25.1220 RIBOSOMAL PROTEIN S25,1.24
same,fold change vs vehicle control,"protein LINJ.26.1080 HY[…], CONSERVED",1.11
same,fold change vs vehicle control,"protein LINJ.27.1140 HY[…], CONSERVED",1.05
same,fold change vs vehicle control,"protein LINJ.28.1100 RIBOSOMAL PROTEIN S20, PUTATIVE",1.04
same,fold change relative to vehicle control,"protein LINJ.28.1940 REPLICATION FACTOR A, 51KDA SUBUNIT, PUTATIVE",1.28
same,fold change,"protein LINJ.31.2350 ADP-RI[…], PUTATIVE",1.11
same,fold change vs vehicle control,"protein LINJ.34.0670 […]-ATP-ASE SUBUNIT 11, PUTATIVE",1.17
same,fold change,"protein LINJ.35.0410 40S RIBOSOMAL PROTEIN S3A, PUTATIVE",1.2
same,fold change relative to vehicle control,"protein LINJ.35.0780 CBS DOMAIN PROTEIN, CONSERVED",0.96
same,fold change vs vehicle control,"protein LINJ.36.0510 HY[…], CONSERVED",1.08
same,fold change vs vehicle control,"protein LINJ.36.3940 40S RIBOSOMAL PROTEIN S27-1, PUTATIVE",0.95
same,fold change,protein LINJ.36.4180 HS1VU COMPLEX PROTEOLYTIC SUBUNIT-LIKE,0.97
same,fold change,protein LINJ.36.7350 […] OXIDASE SUBUNIT I,1.03
same,fold change,"protein LMJF.01.0520 LONG-CHAIN-FATTY-ACID-COA LIGASE, PUTATIVE",0.98
same,fold change vs vehicle control,"protein LMJF.02.0460 HY[…], CONSERVED",1.06
same,fold change vs vehicle control,"protein LMJF.03.0230 LONG CHAIN FATTY ACYL COA SYNTHETASE, PUTATIVE",1.18
same,fold change vs vehicle control,"protein LMJF.03.0630 HYPOTHETICAL PROTEIN, CONSERVED",1
same,fold change,"protein LMJF.05.0780 HY[…], CONSERVED",1.13
same,fold change,protein LMJF.06.0010 HISTONE H4,1.16
same,fold change,"protein LMJF.06.0140 PROTEASOME BETA 6 SUBUNIT, PUTATIVE",0.93
same,fold change,"protein LMJF.06.0650 […], PUTATIVE",1.08
same,fold change vs vehicle control,"protein LMJF.08.0510 RIBOSE-PHOSPHATE PYROPHOSPHOKINASE, PUTATIVE",1.01
same,fold change vs vehicle control,protein LMJF.08.0550 TRANSLATION INITIATION FACTOR-LIKE PROTEIN,1.1
same,fold change vs vehicle control,"protein LMJF.08.1100 HY[…], CONSERVED",1.08
same,fold change relative to vehicle control,"protein LMJF.09.1120 MITOCHONDRIAL RNA BINDING PROTEIN 2,MRP2, GBP25",1
same,fold change vs vehicle control,"protein LMJF.09.1260 HY[…], CONSERVED",1.11
same,fold change,protein LMJF.10.1010 NUCLEOSIDE PHOSPHORYLASE-LIKE PROTEIN,0.94
same,fold change,"protein LMJF.10.1240 HYPOTHETICAL PROTEIN, CONSERVED",0.79
same,fold change vs vehicle control,protein LMJF.11.0130 NGG1 I[…] 3-LIKE PROTEIN,1.06
same,fold change vs vehicle control,"protein LMJF.11.0240 […] 7 SUBUNIT, PUTATIVE",1.02
same,fold change,"protein LMJF.11.1050 PRETRA[…], ALPHA SUBUNIT, PUTATIVE",1.27
same,fold change vs vehicle control,"protein LMJF.11.1110 60S RIBOSOMAL PROTEIN L28, PUTATIVE",1.71
same,fold change vs vehicle control,"protein LMJF.12.0210 […] […]1L8 3, PUTATIVE",0.96
same,fold change vs vehicle control,"protein LMJF.12.0280 ORNITHINE DECARBOXYLASE, PUTATIVE",0.92
same,fold change vs vehicle control,"protein LMJF.13.0450 HYPOTHETICAL PROTEIN, CONSERVED",0.94
same,fold change vs vehicle control,"protein LMJF.13.0870 MIT[…] ALPHA SUBUNIT, PUTATIVE",1.12
same,fold change vs vehicle control,"protein LMJF.14.0130 INOSINE-GUANINE NUCLEOSIDE HYDROLASE, PUTATIVE",1
same,fold change,"protein LMJF.14.0310 PROTEASOME ALPHA 3 SUBUNIT, PUTATIVE",0.96
same,fold change,"protein LMJF.14.0650 FATTY ACID ELONGASE, PUTATIVE",1.09
same,fold change,"protein LMJF.14.0660 FATTY ACID ELONGASE, PUTATIVE",1.14
same,fold change,"protein LMJF.14.0705 FATTY ACID ELONGASE, PUTATIVE",0.94
same,fold change,"protein LMJF.14.0740 FATTY ACID ELONGASE, PUTATIVE",1.13
same,fold change relative to vehicle control,"protein LMJF.14.1120 KINESIN K39, PUTATIVE",1.12
same,fold change vs vehicle control,"protein LMJF.15.0230 LYSYL-TRNA SYNTHETASE, PUTATIVE",1.06
same,fold change vs vehicle control,"protein LMJF.15.0280 RIBONUCLEOPROTEIN P18, MIT[…], PUTATIVE",1.12
same,fold change,protein LMJF.15.1010 GLUTAMATE DEHYDROGENASE,1.12
same,fold change relative to vehicle control,"protein LMJF.16.0520 HYPOTHETICAL PROTEIN, CONSERVED",2.05
same,fold change,"protein LMJF.16.0540 ASPARTATE […], PUTATIVE",1.05
same,fold change vs vehicle control,protein LMJF.16.0950 SUCROSE-PHOSPHATE SYNTHASE-LIKE PROTEIN,1.27
same,fold change vs vehicle control,"protein LMJF.16.0960 HYPOTHETICAL PROTEIN, CONSERVED",0.64
same,fold change,protein LMJF.16.1180 COATOMER DELTA SUBUNIT-LIKE PROTEIN,1.05
same,fold change,"protein LMJF.17.0010 HYPOTHETICAL PROTEIN, CONSERVED",0.79
same,fold change vs vehicle control,"protein LMJF.18.0510 ACONITASE, PUTATIVE",1.1
same,fold change vs vehicle control,"protein LMJF.18.0890 RAB7 GTP BINDING PROTEIN, PUTATIVE",0.93
same,fold change,"protein LMJF.18.1130 RAS-RELATED PROTEIN RAB-5, PUTATIVE",0.97
same,fold change,"protein LMJF.19.1120 […]-ATP-ASE SUBUNIT, PUTATIVE",1.02
same,fold change vs vehicle control,"protein LMJF.19.1160 HY[…], CONSERVED",1.14
same,fold change vs vehicle control,protein LMJF.19.1530 PEPT[…]-LIKE PROTEIN,1.05
same,fold change,"protein LMJF.20.0100 PHOSPH[…] C, GLYCOSOMAL",1.08
same,fold change vs vehicle control,"protein LMJF.21.0720 HY[…], CONSERVED",1.29
same,fold change,"protein LMJF.21.1250 ADENYLATE KINASE, PUTATIVE",0.9
same,fold change,"protein LMJF.21.1555 HY[…], CONSERVED",1.14
same,fold change,"protein LMJF.21.1580 HY[…], UNKNOWN FUNCTION",1.22
same,fold change vs vehicle control,"protein LMJF.21.1700 […] 2 SUBUNIT, PUTATIVE",1.01
same,fold change,"protein LMJF.22.0230 AMINO ACID PERMEASE, PUTATIVE",1.51
same,fold change,"protein LMJF.22.0570 PROTEASOME REGULATORY ATPASE SUBUNIT 1, PUTATIVE",1.1
